Laboratory results reported in patent US6372926B1, “17-side chain alkynyl-and 20-oxopregna-derivatives of vitamin D, methods for their production and pharmaceutical compositions thereof” (Research Institute for Medicine and Chemistry, priority 1997, dated 2002).

Experiments:
glutocorticoid receptor = molecular target: T1, glutocorticoid receptor (Homo sapiens, UniProt P04150); details: in contrast to RU 486; literature report; cited from earlier work
T1 sequence (P04150 1-777): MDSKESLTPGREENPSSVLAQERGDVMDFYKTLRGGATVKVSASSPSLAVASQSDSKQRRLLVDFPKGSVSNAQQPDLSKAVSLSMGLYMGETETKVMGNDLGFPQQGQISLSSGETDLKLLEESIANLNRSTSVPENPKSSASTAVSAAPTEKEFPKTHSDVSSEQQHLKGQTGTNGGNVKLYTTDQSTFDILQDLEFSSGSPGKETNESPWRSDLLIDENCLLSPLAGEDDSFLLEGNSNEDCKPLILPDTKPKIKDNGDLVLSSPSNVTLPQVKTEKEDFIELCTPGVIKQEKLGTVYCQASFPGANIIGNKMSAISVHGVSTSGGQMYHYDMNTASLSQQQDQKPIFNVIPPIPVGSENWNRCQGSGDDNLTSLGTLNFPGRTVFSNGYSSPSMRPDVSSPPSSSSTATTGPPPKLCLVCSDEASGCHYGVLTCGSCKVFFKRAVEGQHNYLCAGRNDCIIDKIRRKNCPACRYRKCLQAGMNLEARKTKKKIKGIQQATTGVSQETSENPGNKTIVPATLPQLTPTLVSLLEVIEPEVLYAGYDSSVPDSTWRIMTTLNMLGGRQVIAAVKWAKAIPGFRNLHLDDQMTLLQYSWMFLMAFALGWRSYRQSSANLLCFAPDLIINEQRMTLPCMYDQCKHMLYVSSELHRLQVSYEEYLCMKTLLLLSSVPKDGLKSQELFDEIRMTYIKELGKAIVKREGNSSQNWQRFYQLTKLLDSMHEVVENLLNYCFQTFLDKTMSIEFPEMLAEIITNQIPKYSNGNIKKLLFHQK

[1] = tested on: human breast cancer cells (T47D); details: Endocrine Society 1994 Abstract No. 1744; cited from earlier work
progesterone receptor = molecular target: T2, progesterone receptor (Homo sapiens, UniProt P06401); details: as reported by DeLuca and coworkers; cited from earlier work
T2 sequence (P06401 1-933): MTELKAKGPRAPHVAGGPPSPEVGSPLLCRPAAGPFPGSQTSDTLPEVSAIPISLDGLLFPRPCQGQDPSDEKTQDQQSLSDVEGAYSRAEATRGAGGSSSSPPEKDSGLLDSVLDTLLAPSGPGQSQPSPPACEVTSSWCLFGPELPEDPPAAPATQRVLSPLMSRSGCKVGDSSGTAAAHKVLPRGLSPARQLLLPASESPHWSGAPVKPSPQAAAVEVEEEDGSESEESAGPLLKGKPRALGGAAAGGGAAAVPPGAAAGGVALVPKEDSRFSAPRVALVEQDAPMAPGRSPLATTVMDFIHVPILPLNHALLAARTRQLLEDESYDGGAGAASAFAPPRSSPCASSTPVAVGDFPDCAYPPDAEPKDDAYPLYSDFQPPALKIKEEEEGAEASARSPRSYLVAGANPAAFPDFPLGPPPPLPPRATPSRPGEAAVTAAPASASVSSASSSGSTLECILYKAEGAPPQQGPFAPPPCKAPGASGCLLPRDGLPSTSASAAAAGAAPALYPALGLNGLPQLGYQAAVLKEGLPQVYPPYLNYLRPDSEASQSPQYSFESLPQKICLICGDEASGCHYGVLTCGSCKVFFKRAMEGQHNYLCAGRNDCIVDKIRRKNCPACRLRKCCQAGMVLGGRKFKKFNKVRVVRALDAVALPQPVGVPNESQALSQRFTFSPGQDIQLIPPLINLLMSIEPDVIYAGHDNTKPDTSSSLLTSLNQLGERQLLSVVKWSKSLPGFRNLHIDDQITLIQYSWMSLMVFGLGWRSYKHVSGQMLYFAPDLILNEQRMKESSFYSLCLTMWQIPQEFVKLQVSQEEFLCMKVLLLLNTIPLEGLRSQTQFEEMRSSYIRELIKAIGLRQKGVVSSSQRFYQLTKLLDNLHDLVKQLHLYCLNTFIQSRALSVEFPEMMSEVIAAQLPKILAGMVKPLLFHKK

progesterone activity = experiment: anti-progesterone activity (applicant's finding); details: evidenced by antifertility activity, anti-progesterone assay and inhibition of growth of T47D and MCF-7 cell lines; no data given

SMILES | binding to the glucocorticoid receptor (glutocorticoid receptor) | suppression of in vitro growth of human breast cancer cells (T47D) [1] | ability to bind to the progesterone receptor (progesterone receptor) | antagonism of progesterone activity (progesterone activity)
C=C1CC[C@H](O)C/C1=C/C=C1\CCC[C@@]2(C)[C@@H](C(C)=O)CC[C@H]12 [20-oxopregnacalciferol] | not to bind | suppress in vitro growth | – | –
C=C1C(=CC=C2CCCC3(C)C(C(C)=O)CCC23)CC(O)CC1O (stereo not drawn) [1α-Hydroxy-20-oxopregna-calciferol, 1α,3β-Dihydroxy-20-oxo-9,10-secopregna-5(Z),7,10(19)-triene] | – | – | not to have such binding effect | anti-progestational activity
